Source: PubChem BioAssay AID2060910 (Molecular Pharmacology Branch, DTP, NCI, 2025)

Tested on: 242566-281-R-J2-PDC complex spheroid viability
Experiment: Anticancer human tumor 242566-281-R-J2-PDC patient-derived pancreatic carcinoma cell line growth inhibition [RAS]
Conditions: for IC50: curve of first compound; for viability, T/C: stronger effect = lower value
In short: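 Tumour cells grown as complex spheroids with HUVEC endothelial cells and mesenchymal stem cells, treated with RAS pathway inhibitor combinations. Each agent spans half-log steps from near clinical Cmax, or 10 microM where Cmax is unknown.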
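Also: spheroids exposed to compound for 7 days before readout.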
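For viability, T/C in this document: 100% = DMSO vehicle control wells.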

CC(C)NCC(C(=O)N1CCN(c2ncnc3c2C(C)CC3O)CC1)c1ccc(Cl)cc1 (configuration not stated) + C#Cc1c(F)ccc2cc(O)cc(-c3ncc4c(N5CC6CCC(C5)N6)nc(OCC56CCCN5CC(F)C6)nc4c3F)c12
IC50 (second compound 0.0316 µM): 7.27 µM
IC50 (second compound 0.1 µM): 2.95 µM
IC50 (second compound 0.316 µM): 1.75 µM
IC50 (second compound 1 µM): 0.701 µM
IC50 (second compound 3.16 µM): 0.404 µM
IC50 (second compound 10 µM): 0.392 µM
viability, T/C (second compound 0.0316 µM, first compound 0.0316 µM): 74.9%
viability, T/C (second compound 0.0316 µM, first compound 0.1 µM): 116%
viability, T/C (second compound 0.0316 µM, first compound 0.316 µM): 86.2%
viability, T/C (second compound 0.0316 µM, first compound 1 µM): 84.8%
viability, T/C (second compound 0.0316 µM, first compound 3.16 µM): 66.6%
viability, T/C (second compound 0.0316 µM, first compound 10 µM): 43.7%
viability, T/C (second compound 0.1 µM, first compound 0.0316 µM): 97.8%
viability, T/C (second compound 0.1 µM, first compound 0.1 µM): 78.6%
viability, T/C (second compound 0.1 µM, first compound 0.316 µM): 74.5%
viability, T/C (second compound 0.1 µM, first compound 1 µM): 54.8%
viability, T/C (second compound 0.1 µM, first compound 3.16 µM): 58%
viability, T/C (second compound 0.1 µM, first compound 10 µM): 34.5%
viability, T/C (second compound 0.316 µM, first compound 0.0316 µM): 81.2%
viability, T/C (second compound 0.316 µM, first compound 0.1 µM): 81.1%
viability, T/C (second compound 0.316 µM, first compound 0.316 µM): 64.9%
viability, T/C (second compound 0.316 µM, first compound 1 µM): 55%
viability, T/C (second compound 0.316 µM, first compound 3.16 µM): 45.8%
viability, T/C (second compound 0.316 µM, first compound 10 µM): 23.9%
viability, T/C (second compound 1 µM, first compound 0.0316 µM): 71.8%
viability, T/C (second compound 1 µM, first compound 0.1 µM): 68.3%
viability, T/C (second compound 1 µM, first compound 0.316 µM): 59.4%
viability, T/C (second compound 1 µM, first compound 1 µM): 41.4%
viability, T/C (second compound 1 µM, first compound 3.16 µM): 37.5%
viability, T/C (second compound 1 µM, first compound 10 µM): 18.4%
viability, T/C (second compound 3.16 µM, first compound 0.0316 µM): 62.8%
viability, T/C (second compound 3.16 µM, first compound 0.1 µM): 64.2%
viability, T/C (second compound 3.16 µM, first compound 0.316 µM): 53.9%
viability, T/C (second compound 3.16 µM, first compound 1 µM): 34.5%
viability, T/C (second compound 3.16 µM, first compound 3.16 µM): 24.8%
viability, T/C (second compound 3.16 µM, first compound 10 µM): 16.4%
viability, T/C (second compound 10 µM, first compound 0.0316 µM): 61.6%
viability, T/C (second compound 10 µM, first compound 0.1 µM): 59.6%
viability, T/C (second compound 10 µM, first compound 0.316 µM): 52.7%
viability, T/C (second compound 10 µM, first compound 1 µM): 38.1%
viability, T/C (second compound 10 µM, first compound 3.16 µM): 22%
viability, T/C (second compound 10 µM, first compound 10 µM): 14.3%
